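48-hour exposure; five concentrations; linearly interpolated endpoints. GI50 marks 50% less growth.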 Active and inactive are the calls of the source. Rule as the data show it: active = GI50 up to about 1.1 µM and inactive = higher.
How the values were obtained:
Assay in all cases: NCI anticancer screen, dose series, 48 h
MCF7 = test system: MCF7
TK-10 = test system: TK-10
SN12C = test system: SN12C
UACC-257 = test system: UACC-257
MDA-MB-231 = test system: MDA-MB-231
HCT-15 = test system: HCT-15
PC-3 = test system: PC-3
HOP-62 = test system: HOP-62
M19-MEL = test system: M19-MEL
SF-539 = test system: SF-539
DU-145 = test system: DU-145
DMS-114 = test system: DMS-114
HCC 2998 = test system: HCC 2998
DLD-1 = test system: DLD-1
RPMI-8226 = test system: RPMI-8226
CCRF-CEM = test system: CCRF-CEM
SK-MEL-5 = test system: SK-MEL-5
OVCAR-3 = test system: OVCAR-3
HCT-116 = test system: HCT-116
OVCAR-4 = test system: OVCAR-4
SNB-75 = test system: SNB-75
T47D = test system: T47D
SR = test system: SR
SF-268 = test system: SF-268
M14 = test system: M14
786-0 = test system: 786-0
ACHN = test system: ACHN
A498 = test system: A498
K562 = test system: K562
HL-60 = test system: HL-60
EKVX = test system: EKVX
KM12 = test system: KM12
KM-20L2 = test system: KM-20L2
OVCAR-5 = test system: OVCAR-5
UACC-62 = test system: UACC-62
SK-OV-3 = test system: SK-OV-3
NCI/ADR-RES = test system: NCI/ADR-RES
SNB-19 = test system: SNB-19
COLO 205 = test system: COLO 205
Malme-3M = test system: Malme-3M
NCI-H522 = test system: NCI-H522
NCI-H23 = test system: NCI-H23
HT-29 = test system: HT-29
NCI-H226 = test system: NCI-H226
RXF 393 = test system: RXF 393
SNB-78 = test system: SNB-78
NCI-H460 = test system: NCI-H460
MOLT-4 = test system: MOLT-4
SW-620 = test system: SW-620
OVCAR-8 = test system: OVCAR-8
MDA-N = test system: MDA-N
U-251 = test system: U-251
LXFL 529 = test system: LXFL 529
HOP-92 = test system: HOP-92
SF-295 = test system: SF-295
UO-31 = test system: UO-31
DMS-273 = test system: DMS-273
IGROV-1 = test system: IGROV-1
A549 = test system: A549
LOX IMVI = test system: LOX IMVI
SK-MEL-28 = test system: SK-MEL-28
SK-MEL-2 = test system: SK-MEL-2
BT-549 = test system: BT-549
HOP-18 = test system: HOP-18
CAKI-1 = test system: CAKI-1
XF498 = test system: XF498

Measured: GI50

CCOC(=O)CSc1nnc(C(Sc2nc(-c3ccccc3)c(-c3ccccc3)[nH]2)C(C)C)n1-c1ccccc1 (stereo not drawn)
18.1 µM: HCT-15
inactive: MCF7 34.7 µM | TK-10 21.5 µM | SN12C 15.9 µM | UACC-257 14 µM | MDA-MB-231 24.4 µM | PC-3 28.6 µM | HOP-62 > 10 µM | M19-MEL > 10 µM | SF-539 13 µM | DU-145 39.6 µM | DMS-114 > 10 µM | HCC 2998 19.2 µM | DLD-1 > 10 µM | RPMI-8226 33.4 µM | CCRF-CEM 14.3 µM | SK-MEL-5 > 10 µM | OVCAR-3 > 10 µM | HCT-116 14.5 µM | OVCAR-4 17.5 µM | SNB-75 > 10 µM | T47D 28.3 µM | SR 31.2 µM | SF-268 17.9 µM | M14 14.3 µM | 786-0 16 µM | ACHN 19.7 µM | A498 > 10 µM | K562 24.7 µM | HL-60 20 µM | EKVX 21.2 µM | KM12 17.7 µM | KM-20L2 > 10 µM | OVCAR-5 18.9 µM | UACC-62 > 10 µM | SK-OV-3 > 10 µM | NCI/ADR-RES 26.9 µM | SNB-19 21.9 µM | COLO 205 17 µM | Malme-3M 17.5 µM | NCI-H522 15.2 µM | NCI-H23 > 10 µM | HT-29 14 µM | NCI-H226 17.1 µM | RXF 393 26.2 µM | SNB-78 > 10 µM | NCI-H460 17.5 µM | MOLT-4 17.1 µM | SW-620 19 µM | OVCAR-8 19.1 µM | MDA-N 30.4 µM | U-251 > 10 µM | LXFL 529 > 10 µM | HOP-92 > 10 µM | SF-295 > 10 µM | UO-31 17.4 µM | DMS-273 > 10 µM | IGROV-1 > 10 µM | A549 19.2 µM | LOX IMVI 13.7 µM | SK-MEL-28 18.2 µM | SK-MEL-2 16.1 µM | BT-549 24.5 µM

CCOP12(OCC)NC(=O)OC1(C(F)(F)F)c1ccccc1O2 (stereo not drawn)
> 100 µM: HCT-15
inactive: TK-10 > 100 µM | SN12C > 100 µM | UACC-257 > 100 µM | M19-MEL > 100 µM | SF-539 > 100 µM | DMS-114 > 100 µM | DLD-1 > 100 µM | CCRF-CEM > 100 µM | SK-MEL-5 > 100 µM | OVCAR-3 > 100 µM | HCT-116 > 100 µM | OVCAR-4 > 100 µM | SNB-75 82.8 µM | HOP-18 > 100 µM | SF-268 > 100 µM | M14 > 100 µM | 786-0 > 100 µM | ACHN > 100 µM | K562 > 100 µM | HL-60 > 100 µM | KM12 > 100 µM | UACC-62 > 100 µM | SK-OV-3 > 100 µM | SNB-19 > 100 µM | Malme-3M > 100 µM | NCI-H522 > 100 µM | NCI-H23 > 100 µM | HT-29 > 100 µM | NCI-H226 > 100 µM | RXF 393 > 100 µM | SNB-78 > 100 µM | NCI-H460 > 100 µM | MOLT-4 > 100 µM | OVCAR-8 > 100 µM | LXFL 529 > 100 µM | SF-295 > 100 µM | UO-31 > 100 µM | DMS-273 > 100 µM | IGROV-1 > 100 µM | A549 > 100 µM | LOX IMVI > 100 µM | SK-MEL-28 > 100 µM | SK-MEL-2 > 100 µM

COc1ccc(-c2cc(=O)c3ccc(O)cc3o2)c(OC)c1OC
inactive: TK-10 78.3 µM | SN12C 82.8 µM | UACC-257 94 µM | HOP-62 92.3 µM | M19-MEL 74.3 µM | SF-539 46 µM | DMS-114 33.2 µM | HCC 2998 48.8 µM | DLD-1 93.1 µM | RPMI-8226 18.9 µM | CCRF-CEM 42.8 µM | OVCAR-3 41.9 µM | HCT-116 51.9 µM | CAKI-1 89.3 µM | OVCAR-4 88.7 µM | SNB-75 28.7 µM | SF-268 41.3 µM | M14 72.9 µM | 786-0 79.3 µM | ACHN 40.9 µM | K562 29.6 µM | HL-60 31.6 µM | EKVX 87.3 µM | KM12 71.1 µM | KM-20L2 43 µM | OVCAR-5 > 10 µM | UACC-62 36.2 µM | SK-OV-3 90.6 µM | XF498 65.5 µM | SNB-19 65 µM | COLO 205 95.9 µM | Malme-3M > 100 µM | NCI-H522 25.4 µM | NCI-H23 43.4 µM | HT-29 60.4 µM | NCI-H226 > 100 µM | RXF 393 28.9 µM | SW-620 48 µM | LXFL 529 66.8 µM | HOP-92 82.2 µM | SF-295 46.5 µM | IGROV-1 > 100 µM | A549 55.7 µM | LOX IMVI 60.7 µM | SK-MEL-28 64.3 µM | SK-MEL-2 27.2 µM
